{"source": "patent US20150374673A1", "about": "“Combination Therapy for the Treatment of Nosocomial Pneumonia” (priority 2013, published 2015)", "key": {"S. aureus": {"system": "S. aureus", "test": "MIC, CLSI broth microdilution in CAMHB with 0-10% pulmonary surfactant (avibactam fixed at 4 μg/mL in combination)", "format": "cell-based, Staphylococcus aureus", "protocol": "(§1) The bacterial strains used in this testing were part of the microbiological culture collection housed at AstraZeneca R&D Boston (AstraZeneca Research Collection, designated ARC). The panel of bacterial isolates used for this testing was comprised of five CLSI QC reference strains and the remainder were either recent clinical isolates expressing β-lactamases or isolates from the primary bacterial screening panels.\n(§2) MIC values were determined using the CLSI broth microdilution methodology with slight variation. Stock compound mother plates were prepared and used to spot 2 μL aliquots of serial 2-fold drug dilutions to columns 1-11 of 96-well daughter plates using a Perkin-Elmer MiniTrak™ MultiPosition dispenser. […] An inoculum volume of 100 μL (5×10E^5 CFU/mL) in CAMHB containing 0, 1, 2.5, 5, or 10% pulmonary surfactant was added using a multichannel Finnpipette® to each well of the 96-well plate.\n(§3) The minimum inhibitory concentration (MIC) values against each organism/drug combination were determined using broth microdilution methodology according to CLSI guidelines. The recommended reference bacterial strains for each test group and reference compounds were incorporated into each test. For Gram-negatives, the reference bacterial strains were Escherichia coli ATCC 25922, E. coli ATCC 35218, Klebsiella pneumoniae ATCC 700603, and Pseudomonas aeruginosa ATCC 27853. Staphylococcus aureus ATCC 29213 was the reference bacterial strain for the Gram-positives.\n(§4) MIC values for individual isolates were read visually. The MICs for each compound or combination in pulmonary surfactant was compared to the compound or combination tested in CAMHB alone."}, "P. aeruginosa": {"system": "P. aeruginosa", "test": "MIC, CLSI broth microdilution in CAMHB with 0-10% pulmonary surfactant (avibactam fixed at 4 μg/mL in combination)", "format": "cell-based, Pseudomonas aeruginosa", "protocol": "as §1, §2, §3, §4"}, "[1]": {"system": "Gram-positive or Gram-negative bacterial strains", "test": "MIC in pulmonary surfactant compared with CAMHB alone, whole strain panel", "format": "cell-based", "conditions": "up to 10% pulmonary surfactant vs CAMHB alone; any strain tested", "protocol": "as §1, §2\nThe minimum inhibitory concentration (MIC) values against each organism/drug combination were determined using broth microdilution methodology according to CLSI guidelines. The recommended reference bacterial strains for each test group and reference compounds were incorporated into each test. […]\nMIC values for individual isolates were read visually. […]"}, "[2]": {"test": "Serum and epithelial lining fluid (ELF) pharmacokinetics of ceftazidime-avibactam human simulated regimen in infected and uninfected mice", "conditions": "for fT > MIC: MIC 4, human simulated CAZ-AVI 2000-500 mg q8h 2 h infusion; for Kp at 16 h / Kp at 18.5 h / Kp at 22 h / Kp at 24 h: female, ICR, mouse, epithelial lining fluid (ELF) vs serum, ELF point Penetration Ratio, ELF vs serum, third dosing interval", "protocol": "Pathogen-free, female ICR mice weighing approximately 25 g were acquired from Harlan Sprague Dawley, Inc. (Indianapolis, Ind.) and utilized throughout these experiments. Animals were maintained and used in accordance to National Research Council recommendations, and provided food and water ad libitum. Mice were rendered neutropenic with 100 and 250 mg/kg intraperitoneal injections of cyclophosphamide (Cytoxan®; Bristol-Myers Squibb, Princeton, N.J.) given one and four days prior to inoculation, respectively. Three days prior to inoculation, mice were also given a single 5 mg/kg intraperitoneal injection of uranyl nitrate. This produces a predictable degree of renal impairment to slow drug clearance. Two hours prior to the initiation of antimicrobial therapy, mice were lightly anesthetized using isofluorane (2.5% v/v in 100% oxygen carrier) until the respiratory rate decreased upon visual inspection. Pneumonia was induced by the instillation of 0.05 mL of a 10^7 CFU inoculum of the test isolate suspended in 3% mucin in normal saline. While the mouse is anesthetized, the inoculum is delivered into the animal's oral cavity, blocking the nares and holding the mouse in a vertical position. Aspiration of bacteria into the lungs occurred as the animals began to spontaneously respire.\nIn these studies, we utilized the previously determined dosing regimen described above. Confirmatory serum pharmacokinetic studies were undertaken in infected mice. For these studies, infected neutropenic mice were dosed with the above calculated regimen and groups of six mice ? were euthanized at multiple time points throughout a 24 h period to confirm target exposures blood was collected via cardiac puncture and the serum samples were stored at −80° C. until analysis. Pharmacokinetic studies were undertaken to describe the epithelial lining fluid concentrations in infected mice. For these studies, infected neutropenic mice were dosed with the above calculated regimen and groups of six mice were euthanized at multiple time points throughout the third dosing period (i.e. 16-24 h). Once euthanized, serum and BAL samples were collected as described above. Serum and BAL samples were stored at −80° C. until analysis."}}, "note": "Read-outs that look alike come from different tables or passages of the source."}
{"compound": "NC(=O)[C@@H]1CC[C@@H]2CN1C(=O)N2OS(=O)(=O)[O-].[Na+]", "note": "[avibactam, [(2S,5R)-2-carbamoyl-7-oxo-1,6-diazabicyclo[3.2.1]octan-6-yl]hydrogen sulfate]", "values": [{"measurement": "MIC", "setting": "S. aureus; S. aureus ARC12 (CLSI QC strain, ATCC 29213), surfactant 0%", "result": ">64", "unit": "µg/mL"}, {"measurement": "MIC", "setting": "S. aureus; S. aureus ARC12 (CLSI QC strain, ATCC 29213), surfactant 1%", "result": ">64", "unit": "µg/mL"}, {"measurement": "MIC", "setting": "S. aureus; S. aureus ARC12 (CLSI QC strain, ATCC 29213), surfactant 2.5%", "result": ">64", "unit": "µg/mL"}, {"measurement": "MIC", "setting": "S. aureus; S. aureus ARC12 (CLSI QC strain, ATCC 29213), surfactant 5%", "result": ">64", "unit": "µg/mL"}, {"measurement": "MIC", "setting": "S. aureus; S. aureus ARC12 (CLSI QC strain, ATCC 29213), surfactant 10%", "result": ">64", "unit": "µg/mL"}, {"measurement": "MIC", "setting": "S. aureus; S. aureus ARC516 (MRSA, quinolone-resistant), surfactant 0%", "result": ">64", "unit": "µg/mL"}, {"measurement": "MIC", "setting": "S. aureus; S. aureus ARC516 (MRSA, quinolone-resistant), surfactant 1%", "result": ">64", "unit": "µg/mL"}, {"measurement": "MIC", "setting": "S. aureus; S. aureus ARC516 (MRSA, quinolone-resistant), surfactant 2.5%", "result": ">64", "unit": "µg/mL"}, {"measurement": "MIC", "setting": "S. aureus; S. aureus ARC516 (MRSA, quinolone-resistant), surfactant 5%", "result": ">64", "unit": "µg/mL"}, {"measurement": "MIC", "setting": "S. aureus; S. aureus ARC516 (MRSA, quinolone-resistant), surfactant 10%", "result": ">64", "unit": "µg/mL"}, {"measurement": "MIC", "setting": "P. aeruginosa; P. aeruginosa ARC3 (CLSI QC strain, ATCC 27853), surfactant 1%", "result": ">64", "unit": "µg/mL"}, {"measurement": "MIC", "setting": "P. aeruginosa; P. aeruginosa ARC3 (CLSI QC strain, ATCC 27853), surfactant 2.5%", "result": ">64", "unit": "µg/mL"}, {"measurement": "MIC", "setting": "P. aeruginosa; P. aeruginosa ARC3 (CLSI QC strain, ATCC 27853), surfactant 5%", "result": ">64", "unit": "µg/mL"}, {"measurement": "MIC", "setting": "P. aeruginosa; P. aeruginosa ARC3 (CLSI QC strain, ATCC 27853), surfactant 10%", "result": ">64", "unit": "µg/mL"}, {"measurement": "MIC", "setting": "P. aeruginosa; P. aeruginosa ARC545 (PAO1), surfactant 1%", "result": ">64", "unit": "µg/mL"}, {"measurement": "MIC", "setting": "P. aeruginosa; P. aeruginosa ARC545 (PAO1), surfactant 2.5%", "result": ">64", "unit": "µg/mL"}, {"measurement": "MIC", "setting": "P. aeruginosa; P. aeruginosa ARC545 (PAO1), surfactant 5%", "result": ">64", "unit": "µg/mL"}, {"measurement": "MIC", "setting": "P. aeruginosa; P. aeruginosa ARC545 (PAO1), surfactant 10%", "result": ">64", "unit": "µg/mL"}, {"measurement": "MIC", "setting": "P. aeruginosa; P. aeruginosa ARC2532 (Clinical isolate), surfactant 0%", "result": ">64", "unit": "µg/mL"}, {"measurement": "MIC", "setting": "P. aeruginosa; P. aeruginosa ARC2532 (Clinical isolate), surfactant 1%", "result": ">64", "unit": "µg/mL"}, {"measurement": "MIC", "setting": "P. aeruginosa; P. aeruginosa ARC2532 (Clinical isolate), surfactant 2.5%", "result": ">64", "unit": "µg/mL"}, {"measurement": "MIC", "setting": "P. aeruginosa; P. aeruginosa ARC2532 (Clinical isolate), surfactant 5%", "result": ">64", "unit": "µg/mL"}, {"measurement": "MIC", "setting": "P. aeruginosa; P. aeruginosa ARC2532 (Clinical isolate), surfactant 10%", "result": ">64", "unit": "µg/mL"}, {"measurement": "MIC", "setting": "P. aeruginosa; P. aeruginosa ARC2761 (Clinical isolate), surfactant 1%", "result": ">64", "unit": "µg/mL"}, {"measurement": "MIC", "setting": "P. aeruginosa; P. aeruginosa ARC2761 (Clinical isolate), surfactant 2.5%", "result": ">64", "unit": "µg/mL"}, {"measurement": "MIC", "setting": "P. aeruginosa; P. aeruginosa ARC2761 (Clinical isolate), surfactant 5%", "result": ">64", "unit": "µg/mL"}, {"measurement": "MIC", "setting": "P. aeruginosa; P. aeruginosa ARC2761 (Clinical isolate), surfactant 10%", "result": ">64", "unit": "µg/mL"}, {"measurement": "MIC", "setting": "P. aeruginosa; P. aeruginosa ARC3508 (derepressed AmpC), surfactant 0%", "result": ">64", "unit": "µg/mL"}, {"measurement": "MIC", "setting": "P. aeruginosa; P. aeruginosa ARC3508 (derepressed AmpC), surfactant 1%", "result": ">64", "unit": "µg/mL"}, {"measurement": "MIC", "setting": "P. aeruginosa; P. aeruginosa ARC3508 (derepressed AmpC), surfactant 2.5%", "result": ">64", "unit": "µg/mL"}, {"measurement": "MIC", "setting": "P. aeruginosa; P. aeruginosa ARC3508 (derepressed AmpC), surfactant 5%", "result": ">64", "unit": "µg/mL"}, {"measurement": "MIC", "setting": "P. aeruginosa; P. aeruginosa ARC3508 (derepressed AmpC), surfactant 10%", "result": ">64", "unit": "µg/mL"}, {"measurement": "MIC", "setting": "P. aeruginosa; Pseudomonas aeruginosa, ATCC27853, P. aeruginosa ARC3 (CLSI QC strain, ATCC 27853), surfactant 0%, read-out: MIC", "result": "> 64", "unit": "µg/mL"}, {"measurement": "MIC", "setting": "P. aeruginosa; Pseudomonas aeruginosa, P. aeruginosa ARC545 (PAO1), surfactant 0%, read-out: MIC", "result": "> 64", "unit": "µg/mL"}, {"measurement": "MIC", "setting": "P. aeruginosa; Pseudomonas aeruginosa, P. aeruginosa ARC2761 (Clinical isolate), surfactant 0%, read-out: MIC", "result": "> 64", "unit": "µg/mL"}, {"measurement": "MIC increase in pulmonary surfactant", "setting": "[1]", "result": "no MIC increases were observed"}, {"measurement": "fT > MIC", "setting": "[2]; ELF, infected mice", "result": 3, "unit": "%"}, {"measurement": "fT > MIC", "setting": "[2]; ELF, uninfected mice", "result": 19, "unit": "%"}, {"measurement": "fT > MIC", "setting": "[2]; Serum, infected mice", "result": 34, "unit": "%"}, {"measurement": "fT > MIC", "setting": "[2]; Serum, uninfected mice", "result": 19, "unit": "%"}, {"measurement": "Kp at 16 h", "setting": "[2]; infected mice", "result": 0.59}, {"measurement": "Kp at 18.5 h", "setting": "[2]; infected mice", "result": 0.66}, {"measurement": "Kp at 22 h", "setting": "[2]; infected mice", "result": 0.69}, {"measurement": "Kp at 24 h", "setting": "[2]; infected mice", "result": 0.8}, {"measurement": "Kp at 16 h", "setting": "[2]; uninfected mice", "result": 0.86}, {"measurement": "Kp at 18.5 h", "setting": "[2]; uninfected mice", "result": 0.74}, {"measurement": "Kp at 22 h", "setting": "[2]; uninfected mice", "result": 0.93}, {"measurement": "Kp at 24 h", "setting": "[2]; uninfected mice", "result": 0.95}]}
